According to ChEMBL document CHEMBL3779769, “Indole-2-carboxylic acid derived mono and bis 1,4-disubstituted 1,2,3-triazoles: Synthesis, characterization and evaluation of anticancer, antibacterial, and DNA-cleavage activities” (Bioorg Med Chem Lett, 2016):
pIC50: −log10 of the molar value. Values after ≈ are worked out from the molar mass of the structure shown. Blank lines part the entries; values can stand above or below the molecule they belong to. Active and inactive are the calls of the source. No cut-off for these calls is given here.

Assays:
Escherichia coli [1] = assay: Antibacterial activity against Escherichia coli MTCC 443 by broth dilution method; type: functional
Staphylococcus aureus = assay: Antibacterial activity against Staphylococcus aureus MTCC 96 by broth dilution method; type: functional
Proteus vulgaris = assay: Antibacterial activity against Proteus vulgaris MTCC 1771 by broth dilution method; type: functional
Bacillus subtilis = assay: Antibacterial activity against Bacillus subtilis MTCC 441 by broth dilution method; type: functional
Escherichia coli [2] = assay: Induction of DNA cleavage of Escherichia coli pUC18 at 50 ug/ml by agarose gel electrophoresis
MCF7 = assay: Cytotoxicity against human MCF7 cells assessed as cell viability after 48 hrs by MTT assay; type: functional, cell-based; details: MCF7, 48 h
HeLa = assay: Cytotoxicity against human HeLa cells assessed as cell viability after 48 hrs by MTT assay; type: functional, cell-based
HEK293 = assay: Cytotoxicity against HEK293 cells assessed as cell viability after 48 hrs by MTT assay; type: cell-based; details: Homo sapiens, HEK293, 48 h
Escherichia coli [3] = assay: Induction of DNA cleavage of Escherichia coli pUC18 at 100 ug/ml by agarose gel electrophoresis
[4] = Anticancer activity against mouse EAC cells xenografted in Swiss albino mouse assessed as tumor volume at 10 mg/kg, ip administered for 9 days measured after 14 days (reference value: 12.15 +/- 0.5 ml); type: functional, Ehrlich
[5] = Anticancer activity against mouse EAC cells xenografted in Swiss albino mouse assessed as packed cell volume at 10 mg/kg, ip administered for 9 days measured after 14 days […] (reference value: 2.62 +/- 0.5 ml); type: functional, Ehrlich
[6] = Anticancer activity against mouse EAC cells xenografted in Swiss albino mouse assessed as viable tumor cell count at 10 mg/kg, ip administered for 9 days measured after 14 days by trypan blue incorporation method (reference value: 7.30 +/- 0.6 10^7/ml); type: functional, Ehrlich
Mus musculus [7] = assay: Effect on hemoglobin level in Swiss albino mouse xenografted with mouse EAC cells at 5 mg/kg, ip administered for 9 days measured on day 14 (reference value: 5.67 +/- 0.8 g%); type: functional, Ehrlich
Mus musculus [8] = assay: Effect on RBC level in Swiss albino mouse xenografted with mouse EAC cells at 5 mg/kg, ip administered for 9 days measured on day 14 (reference value: 3.01+/- 0.75 10^6/mm3); type: functional, Ehrlich
Mus musculus [9] = assay: Effect on WBC level in Swiss albino mouse xenografted with mouse EAC cells at 5 mg/kg, ip administered for 9 days measured on day 14 (reference value: 22.07 +/- 0.11 10^3/mm3); type: functional, Ehrlich
Mus musculus [10] = assay: Effect on SGPT level in Swiss albino mouse xenografted with mouse EAC cells at 5 mg/kg, ip administered for 9 days measured on day 14 (reference value: 55.3 +/- 0.52 IU/L); type: functional, Ehrlich
Mus musculus [11] = assay: Effect on SGOT level in Swiss albino mouse xenografted with mouse EAC cells at 5 mg/kg, ip administered for 9 days measured on day 14 (reference value: 116.04 +/- 0.14 IU/L); type: functional, Ehrlich
Mus musculus [12] = assay: Effect on total protein level in Swiss albino mouse xenografted with mouse EAC cells at 5 mg/kg, ip administered for 9 days measured on day 14 (reference value: 7.84 +/- 0.36 […]); type: functional, Ehrlich
Mus musculus [13] = assay: Effect on hemoglobin level in Swiss albino mouse xenografted with mouse EAC cells at 10 mg/kg, ip administered for 9 days measured on day 14 (reference value: 5.67 +/- 0.8 g%); type: functional, Ehrlich
Mus musculus [14] = assay: Effect on RBC level in Swiss albino mouse xenografted with mouse EAC cells at 10 mg/kg, ip administered for 9 days measured on day 14 (reference value: 3.01+/- 0.75 10^6/mm3); type: functional, Ehrlich
Mus musculus [15] = assay: Effect on WBC level in Swiss albino mouse xenografted with mouse EAC cells at 10 mg/kg, ip administered for 9 days measured on day 14 (reference value: 22.07 +/- 0.11 10^3/mm3); type: functional, Ehrlich
Mus musculus [16] = assay: Effect on SGPT level in Swiss albino mouse xenografted with mouse EAC cells at 10 mg/kg, ip administered for 9 days measured on day 14 (reference value: 55.3 +/- 0.52 IU/L); type: functional, Ehrlich
Mus musculus [17] = assay: Effect on SGOT level in Swiss albino mouse xenografted with mouse EAC cells at 10 mg/kg, ip administered for 9 days measured on day 14 (reference value: 116.04 +/- 0.14 IU/L); type: functional, Ehrlich
Mus musculus [18] = assay: Effect on total protein level in Swiss albino mouse xenografted with mouse EAC cells at 10 mg/kg, ip administered for 9 days measured on day 14 (reference value: 7.84 +/- 0.36 […]); type: functional, Ehrlich
Mus musculus [19] = assay: Effect on body weight in Swiss albino mouse xenografted with mouse EAC cells at 5 mg/kg, ip administered for 9 days (reference value: 13.57 +/- 0.4 g); type: functional, Ehrlich
[20] = Anticancer activity against mouse EAC cells xenografted in Swiss albino mouse assessed as mean survival time at 5 mg/kg, ip administered for 9 days measured for 30 days (reference value: 12.8 +/- 0.7 days); type: functional, Ehrlich
[21] = Anticancer activity against mouse EAC cells xenografted in Swiss albino mouse assessed as percent increase in life span at 5 mg/kg, ip administered for 9 days measured for 30 days; type: functional; details: Ehrlich
Mus musculus [22] = assay: Effect on body weight in Swiss albino mouse xenografted with mouse EAC cells at 10 mg/kg, ip administered for 9 days (reference value: 13.57 +/- 0.4 g); type: functional, Ehrlich
[23] = Anticancer activity against mouse EAC cells xenografted in Swiss albino mouse assessed as tumor volume at 5 mg/kg, ip administered for 9 days measured after 14 days (reference value: 12.15 +/- 0.5 ml); type: functional, Ehrlich
[24] = Anticancer activity against mouse EAC cells xenografted in Swiss albino mouse assessed as packed cell volume at 5 mg/kg, ip administered for 9 days measured after 14 days […] (reference value: 2.62 +/- 0.5 ml); type: functional, Ehrlich
[25] = Anticancer activity against mouse EAC cells xenografted in Swiss albino mouse assessed as viable tumor cell count at 5 mg/kg, ip administered for 9 days measured after 14 days by trypan blue incorporation method (reference value: 7.30 +/- 0.6 10^7/ml); type: functional, Ehrlich
[26] = Anticancer activity against mouse EAC cells xenografted in Swiss albino mouse assessed as mean survival time at 10 mg/kg, ip administered for 9 days measured for 30 days (reference value: 12.8 +/- 0.7 days); type: functional, Ehrlich
[27] = Anticancer activity against mouse EAC cells xenografted in Swiss albino mouse assessed as percent increase in life span at 10 mg/kg, ip administered for 9 days measured for 30 days; type: functional; details: Ehrlich

MIC (Escherichia coli [1]): > 150 mg/L
MIC (Staphylococcus aureus): > 150 mg/L
MIC (Proteus vulgaris): > 150 mg/L
MIC (Bacillus subtilis): > 150 mg/L
Activity (Escherichia coli [2]): Active
Structure (SMILES): CCCCc1ccc(-n2cc(COC(=O)c3cc4ccccc4[nH]3)nn2)cc1
pIC50 (MCF7): 4.54
pIC50 (HeLa): < 3.70
pIC50 (HEK293): 4.62

MIC (Escherichia coli [1]): > 150 mg/L
MIC (Staphylococcus aureus): > 150 mg/L
MIC (Proteus vulgaris): > 150 mg/L
MIC (Bacillus subtilis): > 150 mg/L
Structure (SMILES): CCCCc1ccc(-n2cc(COC(=O)c3cc4ccccc4n3Cc3cn(-c4ccc(CCCC)cc4)nn3)nn2)cc1
pIC50 (MCF7): 4.17
pIC50 (HeLa): 4.37
pIC50 (HEK293): < 3.70

MIC (Escherichia coli [1]): > 150 mg/L
MIC (Staphylococcus aureus): > 150 mg/L
MIC (Proteus vulgaris): 9.38 mg/L (≈ 17.5 µM)
MIC (Bacillus subtilis): > 150 mg/L
Structure (SMILES): COc1ccc(-n2cc(COC(=O)c3cc4ccccc4n3Cc3cn(-c4ccc(OC)cc4)nn3)nn2)cc1
pIC50 (MCF7): 4.00
pIC50 (HeLa): 4.25
pIC50 (HEK293): 4.36

MIC (Escherichia coli [1]): > 150 mg/L
MIC (Staphylococcus aureus): 2.34 mg/L (≈ 3.7 µM)
MIC (Proteus vulgaris): > 150 mg/L
MIC (Bacillus subtilis): 1.17 mg/L (≈ 1.85 µM)
Activity (Escherichia coli [3]): Active
Structure (SMILES): O=C(OCc1cn(-c2ccccc2Br)nn1)c1cc2ccccc2n1Cc1cn(-c2ccccc2Br)nn1
pIC50 (MCF7): 4.19
pIC50 (HeLa): 4.44
pIC50 (HEK293): 4.92

MIC (Escherichia coli [1]): > 150 mg/L
MIC (Staphylococcus aureus): > 150 mg/L
MIC (Proteus vulgaris): > 150 mg/L
MIC (Bacillus subtilis): > 150 mg/L
Structure (SMILES): O=C(OCc1cn(-c2ccccc2Br)nn1)c1cc2ccccc2[nH]1
pIC50 (MCF7): 4.41
pIC50 (HeLa): 4.76
pIC50 (HEK293): < 3.70

MIC (Escherichia coli [1]): 2.34 mg/L (≈ 6.07 µM)
MIC (Staphylococcus aureus): > 150 mg/L
MIC (Proteus vulgaris): > 150 mg/L
MIC (Bacillus subtilis): 4.69 mg/L (≈ 12.1 µM)
Activity (Escherichia coli [3]): Active
Structure (SMILES): O=C(OCc1cn(-c2cccc(C(F)(F)F)c2)nn1)c1cc2ccccc2[nH]1
pIC50 (MCF7): 4.78
pIC50 (HeLa): 4.93
pIC50 (HEK293): 4.49

MIC (Escherichia coli [1]): > 150 mg/L
MIC (Staphylococcus aureus): > 150 mg/L
MIC (Proteus vulgaris): > 150 mg/L
MIC (Bacillus subtilis): > 150 mg/L
Activity (Escherichia coli [3]): Active
Structure (SMILES): Cc1cc(C)cc(-n2cc(COC(=O)c3cc4ccccc4[nH]3)nn2)c1
pIC50 (MCF7): 4.52
pIC50 (HeLa): 4.52
pIC50 (HEK293): 4.90

MIC (Escherichia coli [1]): > 150 mg/L
MIC (Staphylococcus aureus): > 150 mg/L
MIC (Proteus vulgaris): > 150 mg/L
MIC (Bacillus subtilis): > 150 mg/L
Structure (SMILES): Cc1cccc(-n2cc(COC(=O)c3cc4ccccc4n3Cc3cn(-c4cccc(C)c4C)nn3)nn2)c1C
pIC50 (MCF7): < 3.70
pIC50 (HeLa): < 3.70
pIC50 (HEK293): 4.85

Structure (SMILES): O=C(OCc1cn(-c2cccc(C(F)(F)F)c2)nn1)c1cc2ccccc2n1Cc1cn(-c2cccc(C(F)(F)F)c2)nn1
Activity [4]: 5.08 mL
Activity [5]: 0.86 mL
Activity [6]: 5.31 ×10⁷ /ml
Activity (Mus musculus [7]): 7.32 g%
Activity (Mus musculus [8]): 3.78 ×10⁶ /mm3
Activity (Mus musculus [9]): 19.32 ×10³ /mm3
Activity (Mus musculus [10]): 53.7 IU/L
Activity (Mus musculus [11]): 109.03 IU/L
Activity (Mus musculus [12]): 7.02 mg/dL
Activity (Mus musculus [13]): 9.3 g%
Activity (Mus musculus [14]): 4.12 ×10⁶ /mm3
Activity (Mus musculus [15]): 16.32 ×10³ /mm3
Activity (Mus musculus [16]): 45.18 IU/L
Activity (Mus musculus [17]): 98.41 IU/L
Activity (Mus musculus [18]): 5.96 mg/dL
MIC (Escherichia coli [1]): 1.17 mg/L (≈ 1.92 µM)
MIC (Staphylococcus aureus): > 150 mg/L
MIC (Proteus vulgaris): > 150 mg/L
MIC (Bacillus subtilis): 2.34 mg/L (≈ 3.83 µM)
pIC50 (MCF7): 4.88
pIC50 (HeLa): 5.00
pIC50 (HEK293): 5.04
Activity (Mus musculus [19]): 11.83 g
MST [20]: 17.23 days
ILS at 5 mg/kg [21]: 14.2%
Activity (Mus musculus [22]): 9.7 g
Activity [23]: 9.32 mL
Activity [24]: 1.63 mL
Activity [25]: 6.27 ×10⁷ /ml
MST [26]: 22.56 days
ILS at 10 mg/kg [27]: 34.1%

MIC (Escherichia coli [1]): > 150 mg/L
MIC (Staphylococcus aureus): 4.69 mg/L (≈ 13.5 µM)
MIC (Proteus vulgaris): > 150 mg/L
MIC (Bacillus subtilis): > 150 mg/L
Structure (SMILES): Cc1cccc(-n2cc(COC(=O)c3cc4ccccc4[nH]3)nn2)c1C
pIC50 (MCF7): 4.77
pIC50 (HeLa): 4.52
pIC50 (HEK293): 4.82

MIC (Escherichia coli [1]): > 150 mg/L
MIC (Staphylococcus aureus): > 150 mg/L
MIC (Proteus vulgaris): 4.69 mg/L (≈ 13.5 µM)
MIC (Bacillus subtilis): > 150 mg/L
Structure (SMILES): COc1ccc(-n2cc(COC(=O)c3cc4ccccc4[nH]3)nn2)cc1
pIC50 (MCF7): 4.79
pIC50 (HeLa): 4.79
pIC50 (HEK293): 4.37

Structure (SMILES): CN[C@@H]1[C@H](O[C@H]2[C@H](O[C@H]3[C@H](O)[C@@H](O)[C@H](N=C(N)N)[C@@H](O)[C@@H]3N=C(N)N)O[C@@H](C)[C@]2(O)C=O)O[C@@H](CO)[C@H](O)[C@H]1O [STREPTOMYCIN]
MIC (Escherichia coli [1]): 6.25 mg/L (≈ 10.7 µM)
MIC (Staphylococcus aureus): 6.25 mg/L (≈ 10.7 µM)
MIC (Proteus vulgaris): 3.12 mg/L (≈ 5.37 µM)
MIC (Bacillus subtilis): 6.25 mg/L (≈ 10.7 µM)

MIC (Escherichia coli [1]): > 150 mg/L
MIC (Staphylococcus aureus): > 150 mg/L
MIC (Proteus vulgaris): > 150 mg/L
MIC (Bacillus subtilis): > 150 mg/L
Structure (SMILES): Cc1cc(C)cc(-n2cc(COC(=O)c3cc4ccccc4n3Cc3cn(-c4cc(C)cc(C)c4)nn3)nn2)c1
pIC50 (MCF7): 4.34
pIC50 (HeLa): 4.54
pIC50 (HEK293): 4.30
